Converted amounts (≈) assume the structure as drawn. The source made the active and inactive calls. No cut-off for these calls is given here.
Tests used:
[1] = test system: Staphylococcus aureus; test: In vivo antibacterial activity against clinically isolated Staphylococcus aureus ATCC29213 infected KM mouse skin abscess model assessed as aggregation of inflammatory cells into epidermis and dermis of skin at 5 mg/kg, sc measured after 24 hrs by Hematoxylin and Eosin staining based analysis; assay type: functional, organism-based
[2] = test system: Staphylococcus aureus; test: Antibacterial activity against clinically isolated Staphylococcus aureus ATCC29213 assessed as inhibition of bacterial growth at 2 times of MIC measured after 18 hrs by broth microdilution method; assay type: functional
[3] = test system: RAW264.7; test: Anti-inflammatory activity against mouse RAW264.7 cells assessed as inhibition LPS-stimulated NO production 0.5 to 4 ug/ml measured after 24 hrs by NO assay kit; assay type: functional, cell-based; conditions: dose 0.5-4 µg/ml
[4] = test system: Escherichia coli; test: Antibacterial activity against clinically isolated Escherichia coli ATCC25922 assessed as inhibition of bacterial growth measured after 16 to 24 hrs by broth microdilution method; assay type: functional; conditions: time 16-24 hrs, read-out: MIC100
[5] = test system: Enterococcus faecalis; test: Antibacterial activity against clinically isolated Enterococcus faecalis ATCC29212 assessed as inhibition of bacterial growth measured after 16 to 24 hrs by broth microdilution method; assay type: functional; conditions: time 16-24 hrs, read-out: MIC100
[6] = test system: Staphylococcus aureus; test: Antibacterial activity against clinically isolated methicillin-resistant Staphylococcus aureus assessed as inhibition of bacterial growth measured after 16 to 24 hrs by broth microdilution method; assay type: functional; conditions: time 16-24 hrs, read-out: MIC100
[7] = In vivo toxicity in KM mouse assessed as red blood cells (RBC) in blood collected from eyes of mouse at 15 mg/kg, sc; assay type: organism-based
[8] = In vivo toxicity in KM mouse assessed as hematocrit (HCT) in blood collected from eyes of mouse at 15 mg/kg, sc; assay type: organism-based
[9] = In vivo toxicity in KM mouse assessed as survival rate at 40 mg/kg, sc relative to control; assay type: organism-based
[10] = In vivo toxicity in KM mouse assessed as survival rate at 15 mg/kg, sc relative to control; assay type: organism-based
[11] = test system: Escherichia coli; test: Anti-biofilm activity against clinically isolated Escherichia coli DE17 assessed inhibition of biofilm formation at 0.5 to 128 ug/ml measured after 12 to 16 hrs incubation by crystal violet staining based analysis; assay type: functional, organism-based; conditions: dose 0.5-128 µg/ml, time 12-16 hrs
[12] = In vivo toxicity in KM mouse assessed as platelet count (PLT) in blood collected from eyes of mouse at 15 mg/kg, sc; assay type: organism-based
[13] = test system: Staphylococcus aureus; test: In vivo antibacterial activity against clinically isolated Staphylococcus aureus ATCC29213 infected KM mouse skin abscess model assessed as decrease in bacterial load in skin at 5 mg/kg, sc measured after 24 hrs by Hematoxylin and Eosin staining based analysis; assay type: functional, organism-based
[14] = test system: Listeria monocytogenes; test: Antibacterial activity against clinically isolated Listeria monocytogenes CICC21662 assessed as inhibition of bacterial growth measured after 16 to 24 hrs by broth microdilution method; assay type: functional; conditions: time 16-24 hrs, read-out: MIC100
[15] = test system: Staphylococcus aureus; test: Anti-biofilm activity against clinically isolated Staphylococcus aureus ATCC29213 assessed inhibition of biofilm formation at 2 ug/ml measured after 12 to 16 hrs incubation by crystal violet staining based analysis; assay type: functional; conditions: time 12-16 hrs
[16] = test system: Escherichia coli; test: Antibacterial activity against clinically isolated Escherichia coli DE17 assessed as inhibition of bacterial growth measured after 16 to 24 hrs by broth microdilution method; assay type: functional; conditions: time 16-24 hrs, read-out: MIC100
[17] = test system: Bacillus cereus; test: Antibacterial activity against clinically isolated Bacillus cereus CMCC63303 assessed as inhibition of bacterial growth measured after 16 to 24 hrs by broth microdilution method; assay type: functional; conditions: time 16-24 hrs, read-out: MIC100
[18] = In vivo toxicity in KM mouse assessed as hemoglobin (HGB) in blood collected from eyes of mouse at 15 mg/kg, sc; assay type: organism-based
[19] = In vivo toxicity in KM mouse assessed as white blood cells (WBC) in blood collected from eyes of mouse at 15 mg/kg, sc; assay type: organism-based
[20] = In vivo toxicity in KM mouse assessed as urea (UREA) in blood collected from eyes of mouse at 15 mg/kg, sc; assay type: organism-based
[21] = In vivo toxicity in KM mouse assessed as redness and swelling skin at site of compound administration at 20 to 40 mg/kg, sc; assay type: organism-based; conditions: dose 20-40 mg/kg
[22] = Hemolytic activity in rabbit erythrocytes assessed as hemolysis at >8 ug/ml; assay type: toxicity, cell-based, Oryctolagus cuniculus; conditions: erythrocyte, dose > 8 µg/ml
[23] = test system: Escherichia coli; test: Anti-biofilm activity against clinically isolated Escherichia coli DE17 assessed inhibition of biofilm formation at 16 ug/ml measured after 12 to 16 hrs incubation by crystal violet staining based analysis; assay type: functional; conditions: time 12-16 hrs
[24] = In vivo toxicity in KM mouse assessed as albumin (ALB) in blood collected from eyes of mouse at 15 mg/kg, sc; assay type: organism-based
[25] = In vivo toxicity in KM mouse assessed as mean corpuscular volume (MCV) in blood collected from eyes of mouse at 15 mg/kg, sc; assay type: organism-based
[26] = test system: Bacillus subtilis; test: Antibacterial activity against clinically isolated Bacillus subtilis ATCC6633 assessed as inhibition of bacterial growth measured after 16 to 24 hrs by broth microdilution method; assay type: functional; conditions: time 16-24 hrs, read-out: MIC100
[27] = test system: Escherichia coli; test: Anti-biofilm activity against clinically isolated Escherichia coli DE17 assessed inhibition of biofilm formation at 8 ug/ml measured after 12 to 16 hrs incubation by crystal violet staining based analysis; assay type: functional; conditions: time 12-16 hrs
[28] = In vivo toxicity in KM mouse assessed as creatinine (CREA) in blood collected from eyes of mouse at 15 mg/kg, sc; assay type: organism-based
[29] = test system: Staphylococcus aureus; test: Antibacterial activity against clinically isolated Staphylococcus aureus ATCC29213 assessed as inhibition of bacterial growth measured after 16 to 24 hrs by broth microdilution method; assay type: functional; conditions: time 16-24 hrs, read-out: MIC100
[30] = test system: Staphylococcus aureus; test: Anti-biofilm activity against clinically isolated Staphylococcus aureus ATCC29213 assessed inhibition of biofilm formation at 0.5 to 128 ug/ml measured after 12 to 16 hrs incubation by crystal violet staining based analysis; assay type: functional, organism-based; conditions: dose 0.5-128 µg/ml, time 12-16 hrs
[31] = test system: Staphylococcus aureus; test: In vivo antibacterial activity against clinically isolated Staphylococcus aureus ATCC29213 infected KM mouse skin abscess model assessed as reduction in size of abscess in dorsal skin and intradermal tissue at 5 mg/kg, sc measured after 24 hrs by Hematoxylin and Eosin staining based analysis; assay type: functional, organism-based
[32] = In vivo toxicity in KM mouse assessed as survival rate at 5 mg/kg, sc relative to control; assay type: organism-based
[33] = test system: Staphylococcus aureus; test: Anti-biofilm activity against clinically isolated Staphylococcus aureus ATCC29213 assessed inhibition of biofilm formation at 4 ug/ml measured after 12 to 16 hrs incubation by crystal violet staining based analysis; assay type: functional; conditions: time 12-16 hrs
[34] = test system: Staphylococcus aureus; test: Antibacterial activity against clinically isolated Staphylococcus aureus ATCC29213 assessed as inhibition of bacterial growth at 1/2 times of MIC measured after 24 consecutive passages by broth microdilution method; assay type: functional, organism-based
[35] = test system: Staphylococcus aureus; test: Biofilm eradication activity against Staphylococcus aureus ATCC29213 assessed biofilm scavenging at 2 ug/ml measured after 12 to 16 hrs incubation by crystal violet staining based analysis; assay type: functional, organism-based; conditions: dose 2.0 µg/ml, time 12-16 hrs
[36] = test system: Staphylococcus aureus; test: In vivo antibacterial activity against clinically isolated Staphylococcus aureus ATCC29213 infected KM mouse skin abscess model assessed as decrease in bacterial survival in skin at 5 mg/kg, sc measured after 24 hrs by Hematoxylin and Eosin staining based analysis; assay type: functional, organism-based
[37] = In vivo toxicity in KM mouse assessed as survival rate at 10 mg/kg, sc relative to control; assay type: organism-based
[38] = test system: Escherichia coli; test: Biofilm eradication activity against Escherichia coli DE17 assessed biofilm scavenging at 8 ug/ml measured after 12 to 16 hrs incubation by crystal violet staining based analysis; assay type: functional, organism-based; conditions: dose 8.0 µg/ml, time 12-16 hrs
[39] = In vivo toxicity in KM mouse assessed as survival rate at 20 mg/kg, sc relative to control; assay type: organism-based
[40] = test system: Staphylococcus aureus; test: Resistance index, ratio of MIC100 for antibacterial activity against clinically isolated Staphylococcus aureus ATCC29213 assessed as inhibition of bacterial growth at 1/2 times of MIC measured after 24 consecutive passages to MIC100 for antibacterial activity against clinically isolated Staphylococcus aureus ATCC29213; assay type: functional

With `CCN(CC)CCCCCCCCCCCCOc1ccc2ccc(=O)oc2c1` as the compound, how does the Activity [1] read?
The Activity was “Active”.

What about the “inhibition (INH)” value [2] of the same compound?
The value was 100%.

What about the Activity [3] of the same compound?
The Activity was “Active”.

What about the MIC [4] of the same compound?
Its MIC is greater than 256 µg/mL.

And the MIC [5]?
Its MIC is 4 µg/mL (≈ 9.96 µM).

What about the MIC [6] of the same compound?
Its MIC is 2 µg/mL (≈ 4.98 µM).

What about the Activity [7] of the same compound?
The Activity was “Non-toxic”.

What about the Activity [8] of the same compound?
The Activity was “Non-toxic”.

What about the survival [9] of the same compound?
Its survival is 100%.

What about the survival [10] of the same compound?
The survival was 100%.

And the Activity [11]?
The Activity was “Dose-dependent-effect”.

What about the Activity [12] of the same compound?
Its Activity is “Non-toxic”.

What about the Activity [13] of the same compound?
The Activity was “Active”.

What about the MIC [14] of the same compound?
The MIC was 2 µg/mL (≈ 4.98 µM).

What about the inhibition at 2 µg/mL [15] of the same compound?
The inhibition at 2 µg/mL was 100%.

And the MIC [16]?
The MIC was greater than 256 µg/mL.

What about the MIC [17] of the same compound?
The MIC was 4 µg/mL (≈ 9.96 µM).

What about the Activity [18] of the same compound?
The Activity was “Non-toxic”.

What about the Activity [19] of the same compound?
The Activity was “Non-toxic”.

What about the Activity [20] of the same compound?
The Activity was “Non-toxic”.

What about the Activity [21] of the same compound?
Its Activity is “Toxic”.

And the Activity [22]?
Its Activity is “Toxic”.

And the inhibition at 16 µg/mL [23]?
The inhibition at 16 µg/mL was 100%.

What about the Activity [24] of the same compound?
Its Activity is “Non-toxic”.

What about the Activity [25] of the same compound?
Its Activity is “Non-toxic”.

And the MIC [26]?
The MIC was 1 µg/mL (≈ 2.49 µM).

And the inhibition at 8 µg/mL [27]?
Its inhibition at 8 µg/mL is 100%.

What about the Activity [28] of the same compound?
Its Activity is “Non-toxic”.

What about the MIC [29] of the same compound?
The MIC was 1 µg/mL (≈ 2.49 µM).

What about the Activity [30] of the same compound?
The Activity was “Dose-dependent-effect”.

What about the Activity [31] of the same compound?
The Activity was “Active”.

What about the survival [32] of the same compound?
The survival was 100%.

And the inhibition at 4 µg/mL [33]?
The inhibition at 4 µg/mL was 100%.

What about the Activity [34] of the same compound?
Its Activity is “Active”.

What about the Activity [35] of the same compound?
Its Activity is “Active”.

And the Activity [36]?
The Activity was “Active”.

What about the survival [37] of the same compound?
The survival was 100%.

And the Activity [38]?
The Activity was “Active”.

What about the survival [39] of the same compound?
The survival was 100%.

With `Cc1onc(-c2ccccc2)c1C(=O)N[C@@H]1C(=O)N2[C@@H]1SC(C)(C)[C@@H]2C(=O)O` [OXACILLIN] as the compound, how does the Ratio [40] read?
Its Ratio is 8.
